Details of series [1]: method as in Joint FAO/WHO Expert Committee on Food Additives. The conditions noted are these: NL: not limited; ref Joint FAO/WHO Expert Committee on Food Additives; cited from earlier work.
For series [2], the target named is T1, bovine carbonic anhydrase (bCA) (Bos taurus, UniProt P00921).
T1 construct: from tissue; host or cells: bovine blood hemolysate (erythrocytes are inferred)
As to the kind of experiment: Inhibition of esterase activity (p-nitrophenyl acetate) of purified bCA. Format: biochemical. To be noted: for IC50 / IC50 bCA: esterase activity method, saturated substrate concentration. The procedure:
(§1) The human erythrocyte carbonic anhydrase isozymes hCAI and hCAII were eluted with 50 mM Na2HPO4 ‐ 1 M NaCl, pH: 6.3, and 0.1 M CH3COONa ‐ 0.5 M NaClO4, pH: 5.6, respectively (flow rate: 20 mL/h, fraction volume: 5 mL). The bovine enzyme was eluted with 0.1 M CH3COONa ‐ 0.5 M NaClO4 (pH: 5.6) buffer system. The protein elution by affinity column chromatography was monitored by absorbance measurement at 280 nm.
(§2) Carbonic anhydrase activity was also assayed by following esterase activity according to the method defined by Verpoorte et al. with slight modification. The enzyme hydrolyzes the substrate, p‐nitrophenyl acetate, to p‐nitrophenol or p‐nitrophenolate. The change in absorbance was measured spectrophotometrically at room temperature for a period of 3 min. The reaction mixture contained 0.5 mL of 0.05 M Tris–SO4 buffer (pH: 7.4), 0.75 mL of p‐NPA (3 mM), 0.1 mL of distilled water, and 0.15 mL of the enzyme solution (final volume 1.5 mL). […] All measurements were performed as triplicates. The method was used to determine the inhibitory activities of the food additives studied.
(§3) To determine the effect of all samples on bCA, hCAI, and hCAII isoenzymes esterase activity at saturated substrate concentration, activity (%) ‐ inhibitor concentration [I] graphs were plotted.

Series [3] addresses T2, hCAII isoenzyme purified from human erythrocytes (Homo sapiens, UniProt P00918).
T2 construct: […]; from tissue; host or cells: human erythrocytes
In words: Inhibition of esterase activity (p-nitrophenyl acetate) of purified hCAII. Format: biochemical. The conditions noted are these: esterase activity method, saturated substrate concentration. The procedure: as §1, §2, §3

Series [4] concerns hCAI. Also on record: method as in PMID 27451209. The conditions noted are these: in vitro; cited from earlier work.
Series [5] concerns glandular stomach, colon and lungs of mice. Also on record: method as in PMID 20686341. To be noted: cited from earlier work.
The target in series [6] is T3, hCAI isoenzyme purified from human erythrocytes (Homo sapiens, UniProt P00915).
T3 construct: hCAI isoenzyme purified from human erythrocytes; from tissue; host or cells: human erythrocytes
In words: Inhibition of esterase activity (p-nitrophenyl acetate) of purified hCAI; IC50, Ki, inhibition type. Format: biochemical. The procedure: as §1, §2, §3
Lineweaver–Burk lines were drawn for each inhibitor concentration. In the graph equation, Ki values were calculated by using Vmax=V^I max(1 + [I]/Ki) formula for semi‐competitive and Noncompetitive inhibition.

Series [7] concerns hCAI. The conditions noted are these: read-out: IC50(hCAI); cited from earlier work.
Series [8] has as its system hCAII. To be noted: read-out: IC50(hCAII); cited from earlier work.
Series [9] deals with hCAII. The conditions noted are these: cited from earlier work.
[10] abbreviates: esterase activity method, saturated substrate concentration, read-out: IC50 hCAI.

Where “and” joins values, the source holds several entries; their conditions need not be identical. Equal values may be shown once. Read-outs that look alike come from different tables or passages of the source. Where a SMILES comes first, the peptide text is derived from it.

The term inhibition denotes the change of the read-out against control, counted positive when it falls. A higher inhibition goes with strong suppression. One may read the IC50 as the concentration that gives 50% inhibition. The term Ki denotes a dissociation constant, usually derived from enzyme kinetics or from competition with a known ligand.

T3 sequence (P00915 whole entry): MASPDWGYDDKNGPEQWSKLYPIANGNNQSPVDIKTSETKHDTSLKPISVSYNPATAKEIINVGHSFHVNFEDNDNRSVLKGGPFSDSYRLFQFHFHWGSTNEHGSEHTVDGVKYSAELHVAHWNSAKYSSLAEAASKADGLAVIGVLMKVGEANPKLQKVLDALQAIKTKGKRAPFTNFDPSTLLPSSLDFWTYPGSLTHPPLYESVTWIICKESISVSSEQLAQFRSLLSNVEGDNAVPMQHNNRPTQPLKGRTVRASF
T1 sequence (P00921 whole entry): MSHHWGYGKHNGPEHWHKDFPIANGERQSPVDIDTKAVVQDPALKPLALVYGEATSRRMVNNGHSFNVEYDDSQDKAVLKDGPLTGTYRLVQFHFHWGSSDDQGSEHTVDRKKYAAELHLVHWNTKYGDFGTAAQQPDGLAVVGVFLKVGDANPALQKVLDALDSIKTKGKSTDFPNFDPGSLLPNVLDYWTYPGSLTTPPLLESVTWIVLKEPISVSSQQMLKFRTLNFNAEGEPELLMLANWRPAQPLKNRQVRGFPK

For `CC1=CC(=O)NS(=O)(=O)O1` [Acesulfame K], the “ADI (acceptable daily intake)” value in [1] is 15 mg/kg. Moreover, in series [2] (at 2 mg/mL concentration), the inhibition at 2000 µg/mL turned out to be 13%. Also, the IC50 in series [2] was determined as 2350.5 ± 0.1 µM.

On to `COc1cc(S(=O)(=O)[O-])c(C)cc1N=Nc1c(O)ccc2cc(S(=O)(=O)[O-])ccc12.[Na+].[Na+]` [Allura Red AC], for which the IC50 in series [3] is 504.04 ± 0.02 µM; in series [4], 565 µM; in series [6] (setting [10]), 781.65 ± 0.06 µM; in series [2] it was 762.12 ± 0.12 µM. Besides, the “ADI (acceptable daily intake)” value in [1] is 7 mg/kg. In addition, the “DNA damage in in vivo comet assay” value in series [5] is recorded as “DNA damage”.

For `O=S(=O)([O-])c1ccc2c(N=Nc3ccc(S(=O)(=O)[O-])c4ccccc34)c(O)c(S(=O)(=O)[O-])cc2c1.[Na+].[Na+].[Na+]` [Amaranth], the IC50 came to 603.11 ± 0.11 µM in [3], 496.04 ± 0.04 µM in [6] (setting [10]) and 296.06 ± 0.06 µM in series [2]. Further, the “ADI (acceptable daily intake)” value in [1] is 0.5 mg/kg.

Consider `O=C1O[C@H]([C@@H](O)CO)C(O)=C1O` [Ascorbic Acid, Ascorbic acid], for which the IC50 stood at 2160.1 ± 0.07 µM in series [3], 1834.1 ± 0.1 µM in series [6] (setting [10]) and 993.67 ± 0.03 µM in series [2].

As for `COC(=O)[C@H](Cc1ccccc1)NC(=O)[C@@H](N)CC(=O)O` [Aspartame] (HELM PEPTIDE1{D.F.[CO[*:1]]}$$$$V2.0), the IC50 in series [3] came out at 2935.8 ± 0.02 µM; in series [6] (setting [10]) it was 2816.9 ± 0.03 µM. For the same molecule, the “ADI (acceptable daily intake)” value in series [1] is 40 mg/kg. Also, the “IC50 bCA” value in [2] was “inactive”; in [2] (listed as aspartame), “no effect”.

Take `O=C(O)c1ccccc1` [Benzoic Acid, Benzoic acid]: the IC50 in series [3] came to 2988.8 ± 0.06 µM; in [6] (setting [10]), 2784 ± 0.06 µM; in series [2], 1850.7 ± 0.05 µM. The “ADI (acceptable daily intake)” value in series [1] was 5 mg/kg.

In the case of `CC(=O)Nc1ccc(S(=O)(=O)[O-])c2cc(S(=O)(=O)[O-])c(N=Nc3ccc(N=Nc4ccc(S(=O)(=O)[O-])cc4)c4ccc(S(=O)(=O)[O-])cc34)c(O)c12.[Na+].[Na+].[Na+].[Na+]` [Brilliant Black BN], the IC50 in series [3] is 502.45 ± 0.03 µM; in [6] (setting [10]) it was 91.14 ± 0.09 µM; in [2] it was 153.32 ± 0.04 µM. For the same molecule, the “ADI (acceptable daily intake)” value in [1] was 1 mg/kg.

Turning to `CCN(Cc1cccc(S(=O)(=O)[O-])c1)c1ccc(C(=C2C=CC(=[N+](CC)Cc3cccc(S(=O)(=O)[O-])c3)C=C2)c2ccccc2S(=O)(=O)[O-])cc1.[Na+].[Na+]` [Brilliant Blue FCF], the IC50 turned out to be 364.3 ± 0.09 µM in series [3], 208.04 ± 0.03 µM in [6] (setting [10]) and 136.26 ± 0.04 µM in series [2]. For the same molecule, the “ADI (acceptable daily intake)” value in series [1] is 6 mg/kg.

With `Cc1cc(C(C)(C)C)c(O)c(C(C)(C)C)c1` [Butylated Hydroxytoluene (BHT), Butylated hydroxytoluene (BHT)], the results for the IC50 in [3], in series [6] (setting [10]) and in [2] were 104.29 ± 0.09 µM, 462.89 ± 0.1 µM and 512.85 ± 0.05 µM, respectively. For the same molecule, in series [1], the “ADI (acceptable daily intake)” value was 0.3 mg/kg.

Turning to `Cc1c(C(=O)O)c(O)cc2c1C(=O)c1c(O)c([C@@H]3O[C@H](CO)[C@@H](O)[C@H](O)[C@H]3O)c(O)c(O)c1C2=O` [Carminic Acid, Carminic acid], the IC50 in series [3] was 581.07 ± 0.03 µM; in [6] (setting [10]), 684 µM; in series [2] it was 586.92 ± 0.01 µM. Moreover, the “ADI (acceptable daily intake)” value in [1] was 2.5 mg/kg.

Regarding `O=C(O)CC(O)(CC(=O)O)C(=O)O` [Citric Acid], the results for the IC50 in [3], in series [6] (setting [10]) and in series [2] were 1241.9 ± 0.07 µM, 1799.4 ± 0.03 µM and 616.9 ± 0.1 µM, respectively.

As to `COc1cc(/C=C/C(=O)CC(=O)/C=C/c2ccc(O)c(OC)c2)ccc1O` [Curcumin], the IC50 in [7] was 5.63 µM; in series [8], 4.81 µM.

Consider `O=C([O-])c1ccccc1-c1c2cc(I)c(=O)c(I)c-2oc2c(I)c([O-])c(I)cc12.[Na+].[Na+]` [Erythrosine B], for which the IC50 in series [3] was 5 µM and 5.22 µM; in series [6] (Table 3, read-out: IC50 (hCAI esterase activity)), 19 µM; in series [6] (setting [10]), 19.37 ± 0.04 µM; in series [2] it was 11 µM and 10.8 µM. In addition, in series [1], the “ADI (acceptable daily intake)” value was 0.1 mg/kg. Moreover, in [6] (Lineweaver–Burk), the Type of inhibition entry is “Noncompetitive”. Besides, the Ki is 2.9 µM in series [6] ([I] 0.015 mM, Lineweaver–Burk, read-out: Ki values); 1.7 µM in series [6] ([I] 0.019 mM, Lineweaver–Burk, read-out: Ki values); 3.9 µM in series [6] ([I] 0.023 mM, Lineweaver–Burk, read-out: Ki values); 2.8 µM in [6] (three inhibitor concentrations, five substrate concentrations (0.15–0.75 mM), read-out: Average Ki).

Consider `O=C1/C(=C2\Nc3ccc(S(=O)(=O)[O-])cc3C2=O)Nc2ccc(S(=O)(=O)[O-])cc21.[Na+].[Na+]` [Indigo Carmine], for which the results for the IC50 in series [3], in series [6] (setting [10]) and in series [2] were 242.03 ± 0.03 µM, 1018.6 ± 0.04 µM and 141.59 ± 0.07 µM, respectively. Besides, the “ADI (acceptable daily intake)” value in [1] was 5 mg/kg.

Turning to `CCN(CC)c1ccc(C(=C2C=CC(=[N+](CC)CC)C=C2)c2cc(O)c(S(=O)(=O)[O-])cc2S(=O)(=O)[O-])cc1.CCN(CC)c1ccc(C(=C2C=CC(=[N+](CC)CC)C=C2)c2cc(O)c(S(=O)(=O)[O-])cc2S(=O)(=O)[O-])cc1.[Ca+2]` [Patent Blue V], the IC50 stood at 396.74 ± 0.03 µM in series [3], 316.98 ± 0.02 µM in series [6] (setting [10]) and 267.46 ± 0.09 µM in series [2]. The “ADI (acceptable daily intake)” value in series [1] is listed as 5 mg/kg.

Regarding `O=S(=O)([O-])c1cc(S(=O)(=O)[O-])c2c(N=Nc3ccc(S(=O)(=O)[O-])c4ccccc34)c(O)ccc2c1.[Na+].[Na+].[Na+]` [Ponceau 4R, Ponceau 4 R], the IC50 in [3] amounted to 617.09 ± 0.01 µM; in series [6] (setting [10]), 678.27 ± 0.03 µM; in series [2], 239.84 ± 0.04 µM. Also, the “ADI (acceptable daily intake)” value in [1] was 0.7 mg/kg.

With `O=C1NS(=O)(=O)c2ccccc21` [Saccharin], the “ADI (acceptable daily intake)” value in series [1] was 5 mg/kg. Besides, the “inhibition against hCAII” value in series [9] is reported as “low micromolar inhibition”. Moreover, in [6] (setting [10]), the IC50 came out at 2049.1 ± 0.1 µM.

Consider `C/C=C/C=C/C(=O)O` [Sorbic Acid, Sorbic acid], for which the IC50 in [3] worked out at 3475.1 ± 0.1 µM; in [6] (setting [10]), 4566.2 ± 0.06 µM; in [2], 1801.4 ± 0.04 µM. In addition, the “ADI (acceptable daily intake)” value in series [1] is listed as 25 mg/kg.

Turning to `O=S(=O)([O-])c1ccc(N=Nc2c(O)ccc3cc(S(=O)(=O)[O-])ccc23)cc1.[Na+].[Na+]` [Sunset Yellow FCF], the IC50 in [3] was determined as 488.63 ± 0.07 µM; in series [6] (setting [10]), 350.05 ± 0.03 µM; in series [2], 680.82 ± 0.05 µM. In series [1], the “ADI (acceptable daily intake)” value is listed as 4 mg/kg.

`O=C([O-])C1=NN(c2ccc(S(=O)(=O)[O-])cc2)C(=O)C1N=Nc1ccc(S(=O)(=O)[O-])cc1.[Na+].[Na+].[Na+]` (centres unmarked) [Tartrazine]: the IC50 came to 621.83 ± 0.05 µM in series [3], 652.25 ± 0.05 µM in [6] (setting [10]) and 659.67 ± 0.07 µM in series [2]. In [1], the “ADI (acceptable daily intake)” value is listed as 7.5 mg/kg.

The values are drawn from PMC12361874, “Common Food Additives Inhibit Carbonic Anhydrase Activity” (Journal of Biochemical and Molecular Toxicology, 2025).
